Here are results for 37 compounds from US7902373B2 (Pfizer Inc, priority 2006, dated 2011).

Molecules are shown by their SMILES.

The test deals with human recombinant H-PGDS (Homo sapiens, UniProt O60760). The experiment in a line: Fluorescence intensity h-PGDS TBA enzyme assay. Format: biochemical. The conditions noted are these: Examples up to 622 (and 3a, 3b).
Chain of human recombinant H-PGDS (O60760 whole entry): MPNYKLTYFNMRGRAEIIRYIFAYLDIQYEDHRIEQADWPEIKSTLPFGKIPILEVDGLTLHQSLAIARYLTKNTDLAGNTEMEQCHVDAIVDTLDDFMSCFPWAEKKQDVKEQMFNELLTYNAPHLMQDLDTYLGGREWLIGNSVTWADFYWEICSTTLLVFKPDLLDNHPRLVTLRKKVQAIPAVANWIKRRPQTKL

Take `COc1cccc(-c2ccc(C(=O)NC3CCN(Cc4ccccn4)CC3)cn2)c1` [Example 15, 6-(3-Methoxyphenyl)-N-[1-(pyridin-2-ylmethyl)piperidin-4-yl]nicotinamide]: the IC50 – broadly, the concentration that gives 50% inhibition – is 2.91 nM.

Take `COc1ccc2nccc(CN3CCC(NC(=O)c4ccc(-c5cccc(F)c5)nc4)CC3)c2c1` [Example 471, 6-(3-Fluorophenyl)-N-{1-[(6-methoxyquinolin-4-yl)methyl]piperidin-4-yl}nicotinamide]: the IC50 was 2.68 nM.

For `Cn1ncc(Cl)c1CN1CCC(NC(=O)c2ccc(-c3cccc(F)c3)nc2)CC1` [Example 519, N-{1-[(4-Chloro-1-methyl-1H-pyrazol-5-yl)methyl]piperidin-4-yl}-6-(3-fluorophenyl)nicotinamide], the IC50 came out at 0.445 nM. Regarding `Cc1nc(C(F)(F)F)nc(N2CCC(NC(=O)c3ccc(-c4cccc(F)c4)nc3)CC2)c1C` [Example 46, N-{1-[5,6-Dimethyl-2-(trifluoromethyl)pyrimidin-4-yl]piperidin-4-yl}-6-(3-fluorophenyl)nicotinamide], the IC50 was determined as 1.73 nM. For the compound `O=C(NC1CCN(Cc2ccnc3ccccc23)CC1)c1ccc(-c2cccc(F)c2)nc1` [Example 189, 6-(3-Fluorophenyl)-N-[1-(quinolin-4-ylmethyl)piperidin-4-yl]nicotinamide], the IC50 was found to be 0.502 nM.

Consider `CC(C)(C)OC(=O)N1CCC(CN2CCC(NC(=O)c3ccc(-c4cccc(F)c4)nc3)CC2)C1` (stereo not shown) [Example 345, tert-Butyl 3-{[4-({[6-(3-fluorophenyl)pyridin-3-yl]carbonyl}amino)piperidin-1-yl]methyl}pyrrolidine-1-carboxylate], for which the IC50 turned out to be 0.508 nM. `O=C(NC1CCN(Cc2ccc(F)c(F)c2F)CC1)c1ccc(-c2cccc(F)c2)nc1` [Example 236, 6-(3-Fluorophenyl)-N-[1-(2,3,4-trifluorobenzyl)piperidin-4-yl]nicotinamide]: the IC50 amounted to 0.577 nM. For the compound `Cc1ncc(CN2CCC(NC(=O)c3ccc(-c4cccc(F)c4)nc3)CC2)cn1` [Example 443, 6-(3-Fluorophenyl)-N-{1-[(2-methylpyrimidin-5-yl)methyl]piperidin-4-yl}nicotinamide], the IC50 is 1.59 nM. Next, `CN1CCC(NC(=O)c2ccc(-c3ccccc3)nc2)CC1` [Example 3a, N-(1-Methylpiperidin-4-yl)-6-phenylnicotinamide]: 6.86 nM. For `CC(C)Oc1ccc(CN2CCC(NC(=O)c3ccc(-c4cccc(F)c4)nc3)CC2)cc1CO` [Example 428, 6-(3-Fluorophenyl)-N-{1-[3-(hydroxymethyl)-4-isopropoxybenzyl]piperidin-4-yl}nicotinamide], the IC50 worked out at 0.926 nM. As for `Cc1sc(CN2CCC(NC(=O)c3ccc(-c4cccc(F)c4)nc3)CC2)nc1-c1ccccc1` [Example 412, 6-(3-Fluorophenyl)-N-{1-[(5-methyl-4-phenyl-13-thiazol-2-yl)methyl]piperidin-4-yl}nicotinamide], the IC50 came to 4.12 nM.

With `CCOc1ccc(CN2CCC(NC(=O)c3ccc(-c4cccc(F)c4)nc3)CC2)cc1OCC` [Example 228, N-[1-(3,4-Diethoxybenzyl)piperidin-4-yl]-6-(3-fluorophenyl)nicotinamide], the IC50 amounted to 2.5 nM. Under `O=C(NC1CCN(Cc2ccccc2)CC1)c1ccc(-c2ccccc2)nc1` [Example 8, N-(1-Benzylpiperidin-4-yl)-6-phenylnicotinamide] stands 1.57 nM; under `O=C(NC1CCN(c2ncnc3[nH]ccc23)CC1)c1ccc(-c2cccc(F)c2)nc1` [Example 124, 6-(3-fluorophenyl)-N-[1-(7H-pyrrolo[23-d]pyrimidin-4-yl)piperidin-4-yl]nicotinamide], 0.345 nM; under `COCCNC(=O)c1ccc(N2CCC(NC(=O)c3ccc(-c4cccc(F)c4)nc3)CC2)nc1` [Example 113, 6-(3-Fluorophenyl)-N-[1-(5-{[(2-methoxyethyl)amino]carbonyl}pyridin-2-yl)piperidin-4-yl]nicotinamide], 0.263 nM. On to `Cn1nccc1-c1ccc(CN2CCC(NC(=O)c3ccc(-c4cccc(F)c4)nc3)CC2)cc1` [Example 474, 6-(3-Fluorophenyl)-N-{1-[4-(1-methyl-1H-pyrazol-5-yl)benzyl]piperidin-4-yl}nicotinamide], for which the IC50 was determined as 1.44 nM. For `O=C(NC1CCN(c2ccc(C(=O)NCC3CCCCC3)nn2)CC1)c1ccc(-c2cccc(F)c2)nc1` [Example 163, N-(Cyclohexylmethyl)-6-[4-({[6-(3-fluorophenyl)pyridin-3-yl]carbonyl}amino)piperidin-1-yl]pyridazine-3-carboxamide], the IC50 was 14.5 nM. Under `O=C(NC1CN(c2nc3ccccc3o2)C1)c1ccc(-c2cccc(F)c2)nc1` [Example 606, N-[1-(1,3-Benzoxazol-2-yl)azetidin-3-yl]-6-(3-fluorophenyl)nicotinamide] stands 10.8 nM; under `CCOC(=O)c1csc(CN2CCC(NC(=O)c3ccc(-c4cccc(F)c4)nc3)CC2)n1` [Example 457, Ethyl 2-{[4-({[6-(3-fluorophenyl)pyridin-3-yl]carbonyl}amino)piperidin-1-yl]methyl}-1,3-thiazole-4-carboxylate], 0.76 nM; under `Cn1nc(C(F)(F)F)c(CN2CCC(NC(=O)c3ccc(-c4cccc(F)c4)nc3)CC2)c1Cl` [Example 314, N-(1-{[5-Chloro-1-methyl-3-(trifluoromethyl)-1H-pyrazol-4-yl]methyl}piperidin-4-yl)-6-(3-fluorophenyl)nicotinamide], 0.24 nM. Under `O=C(NC1CCNCC1c1ccc(F)cc1)c1ccc(-c2cccc(F)c2)nc1` (stereo not shown) [Example 525, 6-(3-Fluorophenyl)-N-[3-(4-fluorophenyl)piperidin-4-yl]nicotinamide] stands 14.8 nM.

In the case of `O=C(NC1CCN(C2CCOCC2)CC1)c1ccc(-c2cccc(F)c2)nc1` [Example 547, 6-(3-Fluorophenyl)-N-[1-(tetrahydro-2H-pyran-4-yl)piperidin-4-yl]nicotinamide], the IC50 came out at 1.14 nM. Regarding `CC(c1cnn(-c2ccccc2)c1)N1CCC(NC(=O)c2ccc(-c3cccc(F)c3)nc2)CC1` (stereo not shown) [Example 540, 6-(3-Fluorophenyl)-N-{1-[1-(1-phenyl-1H-pyrazol-4-yl)ethyl]piperidin-4-yl}nicotinamide], the IC50 was 1.99 nM. With `O=C(NC1CCN(Cc2cn[nH]c2-c2ccccc2Cl)CC1)c1ccc(-c2cccc(F)c2)nc1` [Example 382, N-(1-{[5-(2-Chlorophenyl)-1H-pyrazol-4-yl]methyl}piperidin-4-yl)-6-(3-fluorophenyl)nicotinamide], the IC50 was found to be 0.681 nM. Under `CN1CCc2nc(N3CCC(NC(=O)c4ccc(-c5cccc(F)c5)nc4)C3)ncc2C1` (stereo not shown) [Example 597, 6-(3-Fluorophenyl)-N-[1-(6-methyl-5,6,7,8-tetrahydropyrido[4.3-d]pyrimidin-2-yl)pyrrolidin-3-yl]nicotinamide] stands 0.85 nM; under `CNC(=O)c1ccc(N2CCC(NC(=O)c3ccc(-c4cccc(F)c4)nc3)CC2)nn1` [Example 80, 6-[4-({[6-(3-Fluorophenyl)pyridin-3-yl]carbonyl}amino)piperidin-1-yl]-N-methylpyridazine-3-carboxamide], 0.408 nM. `CC(C)(C)C(=O)N1CC(NC(=O)c2ccc(-c3cccc(F)c3)nc2)C1` [Example 601, N-[1-(2,2-Dimethylpropanoyl)azetidin-3-yl]-6-(3-fluorophenyl)nicotinamide]: the IC50 was 6.76 nM. Regarding `CN(c1nccc(CN2CCC(NC(=O)c3ccc(-c4cccc(F)c4)nc3)CC2)n1)C1CCCCC1` [Example 390, N-[1-({2-[Cyclohexyl(methyl)amino]pyrimidin-4-yl}methyl)piperidin-4-yl]-6-(3-fluorophenyl)nicotinamide], the IC50 is 11.6 nM. As to `CCN(CC)C(=O)c1ccc(N2CCC(NC(=O)c3ccc(-c4cccc(F)c4)nc3)CC2)nc1` [Example 570, N,N-Diethyl-6-[4-({[6-(3-fluorophenyl)pyridin-3-yl]carbonyl}amino)piperidin-1-yl]nicotinamide], the IC50 worked out at 1.41 nM. In the case of `COc1cc2c(N3CCC(NC(=O)c4ccc(-c5cccc(F)c5)nc4)CC3)ncnc2c(OC)c1OC` [Example 123, 6-(3-Fluorophenyl)-N-[1-(678-trimethoxyquinazolin-4-yl)piperidin-4-yl]nicotinamide], the IC50 is 4.66 nM.

As to `O=C(NC1CCN(C2CNC2)CC1)c1ccc(-c2cccc(F)c2)nc1` [Example 552, N-(1-Azetidin-3-ylpiperidin-4-yl)-6-(3-fluorophenyl)nicotinamide], the IC50 is 2.37 nM. Turning to `O=C(NC1CCN(Cc2ccc(OC(F)F)c(OC3CC3)c2)CC1)c1ccc(-c2cccc(F)c2)nc1` [Example 486, N-{1-[3-(Cyclopropyloxy)-4-(difluoromethoxy)benzyl]piperidin-4-yl}-6-(3-fluorophenyl)nicotinamide], the IC50 was 2.32 nM. Under `CC(C)(C)OCCN1CCC(NC(=O)c2ccc(-c3cccc(F)c3)nc2)CC1` [Example 278, N-[1-(2-tert-Butoxyethyl)piperidin-4-yl]-6-(3-fluorophenyl)nicotinamide] stands 5.01 nM; under `CCOc1cccc(CN2CCC(NC(=O)c3ccc(-c4cccc(F)c4)nc3)CC2)c1` [Example 291, N-[1-(3-Ethoxybenzyl)piperidin-4-yl]-6-(3-fluorophenyl)nicotinamide], 1.17 nM. For `Cc1cnc(CN2CCC(NC(=O)c3ccc(-c4cccc(F)c4)nc3)CC2)cn1` [Example 455, 6-(3-Fluorophenyl)-N-{1-[(5-methylpyrazin-2-yl)methyl]piperidin-4-yl}nicotinamide], the IC50 was 1.34 nM.

As to `Cn1cc(Br)c(CN2CCC(NC(=O)c3ccc(-c4cccc(F)c4)nc3)CC2)n1` [Example 321, N-{1-[(4-Bromo-1-methyl-1H-pyrazol-3-yl)methyl]piperidin-4-yl}-6-(3-fluorophenyl)nicotinamide], the IC50 stood at 0.365 nM. Regarding `O=C(NC1CCN(c2ncnc3c2ncn3C2CCCC2)CC1)c1ccc(-c2cccc(F)c2)nc1` [Example 112, N-[1-(9-Cyclopentyl-9H-purin-6-yl)piperidin-4-yl]-6-(3-fluorophenyl)nicotinamide], the IC50 came to 1.87 nM.
